Values after ≈ are worked out from the molar mass of the structure shown. Structures can show the parent of a compound that is named as a salt. Where two headings read alike, the source gives them in different places. No end group written: not given here.
Tests used:
P. aeruginosa PA01 = test: Minimum inhibitory concentration, microbroth dilution; format: cell-based, Pseudomonas aeruginosa; conditions: 5x10^5 CFU/ml, 37°C, 18–24 h, visible growth; for MIC: read-out: MIC P. aeruginosa PA01 (-), μM in brackets; for MIC P. aeruginosa PA01 (-): peptides 512–0.25μg/ml, >70% purity (Cecropin P1 >95%), Ciprofloxacin 32–0.02μg/ml
Description: (§1) Prioritised helminth AMP-LPs were synthesised at >70% purity (Genosphere Biotechnologies). […] Peptides and control antibiotics [Ciprofloxacin (for gram-negative species; Sigma-Aldrich) and Vancomycin hydrochloride (for gram-positive species; Sigma-Aldrich)] were dissolved in sterile ultrapure water at a concentration of 5.12mg/ml. Minimum inhibitory concentrations (MICs) were determined for gram-positive and gram-negative bacterial isolates (see Table 3 for species) using microbroth dilution assays as described previously. Briefly, a single colony from each bacterial species was inoculated in cation-adjusted Mueller Hinton Broth (MHB) and grown for 18–24 hours at 37°C with shaking (225rpm) before being adjusted to a final bacterial density of 5x10^5 colony forming units (CFU) per ml. Peptides and Vancomycin hydrochloride were diluted using sterile MHB in sterile U-bottom 96 well polypropylene microplates (Greiner Bio One, UK) to give a concentration gradient ranging from 512–0.25μg/ml. Ciprofloxacin was further diluted in sterile MHB to give a concentration gradient ranging from 32–0.02μg/ml. Microplates were incubated at 37°C for 18–24 hours. Plates were assessed for visible growth and the MIC was defined as the lowest concentration of peptide or antibiotic that inhibited visible growth of a bacterial culture after an 18–24-hour incubation. MIC data were validated by positive and negative control antibiotic MIC data for each bacterial isolate.

E. coli K12 = test: as above; format: cell-based, Escherichia coli; conditions: 5x10^5 CFU/ml, 37°C, 18–24 h, visible growth; for MIC: read-out: MIC E. coli K12 (-), μM in brackets; for MIC E. coli K12 (-): peptides 512–0.25μg/ml, >70% purity (Cecropin P1 >95%), Ciprofloxacin 32–0.02μg/ml
Description: as §1

A. baumannii DSM 30007 = test: as above; format: cell-based, Acinetobacter baumannii; conditions: 5x10^5 CFU/ml, 37°C, 18–24 h, visible growth; for MIC: read-out: MIC A. baumannii DSM 30007 (-), μM in brackets; for MIC A. baumannii DSM 30007 (-): peptides 512–0.25μg/ml, >70% purity (Cecropin P1 >95%), Ciprofloxacin 32–0.02μg/ml
Description: as §1

E. faecalis JH2-2 = test: microbe, parasite or virus in culture; format: cell-based, Enterococcus faecalis
Description: as §1

S. aureus RN4220 = test: microbe, parasite or virus in culture; format: cell-based, Staphylococcus aureus; conditions: for MIC S. aureus RN4220 (+): peptides and Vancomycin hydrochloride 512–0.25μg/ml, peptides >70% purity (Cecropin P1 >95%)
Description: as §1

S. aureus EMRSA-15 = test: microbe, parasite or virus in culture; format: cell-based, Staphylococcus aureus
Description: as §1

[1] = microbroth dilution, cation-adjusted MHB, 5x10^5 CFU/ml, 37°C, 18–24 h, visible growth, peptides and Vancomycin hydrochloride 512–0.25μg/ml, peptides >70% purity (Cecropin P1 >95%)
[2] = Methicillin-Sensitive, microbroth dilution, cation-adjusted MHB, 5x10^5 CFU/ml, 37°C, 18–24 h, visible growth
[3] = Methicillin-resistant, microbroth dilution, cation-adjusted MHB, 5x10^5 CFU/ml, 37°C, 18–24 h, visible growth, peptides and Vancomycin hydrochloride 512–0.25μg/ml, peptides >70% purity (Cecropin P1 >95%)

Molecule	MIC P. aeruginosa PA01 (-) (P. aeruginosa PA01; cation-adjusted MHB)	MIC E. coli K12 (-) (E. coli K12; cation-adjusted MHB)	MIC A. baumannii DSM 30007 (-) (A. baumannii DSM 30007; cation-adjusted MHB)	MIC E. faecalis JH2-2 (+) (E. faecalis JH2-2; [1])	MIC S. aureus RN4220 (+) (S. aureus RN4220; [2])	MIC S. aureus EMRSA-15 (+) (S. aureus EMRSA-15; [3])	further results
O=C(O)c1cn(C2CC2)c2cc(N3CCNCC3)c(F)cc2c1=O [Ciprofloxacin, reference compound]	0.5 µg/mL (≈ 1.51 µM)	0.0625 µg/mL (≈ 0.189 µM)	1 µg/mL (≈ 3.02 µM)	–	–	–	MIC (P. aeruginosa PA01; Pseudomonas aeruginosa, PA01, cation-adjusted MHB): 2 µM (≈ 0.663 µg/mL); MIC (E. coli K12; Escherichia coli, K12, cation-adjusted MHB): 0.2 µM (≈ 0.0663 µg/mL); MIC (A. baumannii DSM 30007; Acinetobacter baumannii, DSM30007, cation-adjusted MHB): 3 µM (≈ 0.994 µg/mL)
CN[C@H](CC(C)C)C(=O)N[C@H]1C(=O)N[C@@H](CC(N)=O)C(=O)N[C@H]2C(=O)N[C@H]3C(=O)N[C@H](C(=O)N[C@H](C(=O)O)c4cc(O)cc(O)c4-c4cc3ccc4O)[C@H](O)c3ccc(c(Cl)c3)Oc3cc2cc(c3O[C@@H]2O[C@H](CO)[C@@H](O)[C@H](O)[C@H]2O[C@H]2C[C@](C)(N)[C@H](O)[C@H](C)O2)Oc2ccc(cc2Cl)[C@H]1O [Vancomycin hydrochloride, reference compound]	–	–	–	2 µg/mL	1 µg/mL	2 µg/mL	MIC (E. faecalis JH2-2; Enterococcus faecalis, JH22, read-out: MIC E. faecalis JH2-2 (+), μM in brackets): 1 µM; MIC (S. aureus RN4220; Staphylococcus aureus, RN4220, read-out: MIC S. aureus RN4220 (+), μM in brackets): 0.7 µM; MIC (S. aureus EMRSA-15; Staphylococcus aureus, EMRSA15, read-out: MIC S. aureus EMRSA-15 (+), μM in brackets): 1 µM
AVAHVALKLATSPVGKVALNAMVPGAGTVLGVAAKHHGMVKKLVRV [nAMP-LP-224, nematode AMP-like peptide selected for synthesis and MIC screening]	/ (/ indicates that there was no activity at the highest concentration of peptide used (512μg/ml))	/ (/ indicates that there was no activity at the highest concentration of peptide used (512μg/ml))	/ (/ indicates that there was no activity at the highest concentration of peptide used (512μg/ml))	/ (/ indicates that there was no activity at the highest concentration of peptide used (512μg/ml))	/ (/ indicates that there was no activity at the highest concentration of peptide used (512μg/ml))	/ (/ indicates that there was no activity at the highest concentration of peptide used (512μg/ml))	–
DGCPKRVAIAVLKAPYKIFKKEANKGLFKLADKIHGVRY [fAMP-LP-123, flatworm AMP-like peptide selected for synthesis and MIC screening]	/ (/ indicates that there was no activity at the highest concentration of peptide used (512μg/ml))	/ (/ indicates that there was no activity at the highest concentration of peptide used (512μg/ml))	/ (/ indicates that there was no activity at the highest concentration of peptide used (512μg/ml))	/ (/ indicates that there was no activity at the highest concentration of peptide used (512μg/ml))	–	/ (/ indicates that there was no activity at the highest concentration of peptide used (512μg/ml))	–
EYLRKVKDAGAGKAKGGGAPGAESKSGKKSGSAETAASGGAKKGKKK [nAMP-LP-98, nematode AMP-like peptide selected for synthesis and MIC screening]	/ (/ indicates that there was no activity at the highest concentration of peptide used (512μg/ml))	/ (/ indicates that there was no activity at the highest concentration of peptide used (512μg/ml))	/ (/ indicates that there was no activity at the highest concentration of peptide used (512μg/ml))	/ (/ indicates that there was no activity at the highest concentration of peptide used (512μg/ml))	/ (/ indicates that there was no activity at the highest concentration of peptide used (512μg/ml))	/ (/ indicates that there was no activity at the highest concentration of peptide used (512μg/ml))	–
FDKNLLKKGKKSSAYEKHPISRRVLRFE [nAMP-LP-764, nematode AMP-like peptide selected for synthesis and MIC screening]	/ (/ indicates that there was no activity at the highest concentration of peptide used (512μg/ml))	/ (/ indicates that there was no activity at the highest concentration of peptide used (512μg/ml))	/ (/ indicates that there was no activity at the highest concentration of peptide used (512μg/ml))	/ (/ indicates that there was no activity at the highest concentration of peptide used (512μg/ml))	/ (/ indicates that there was no activity at the highest concentration of peptide used (512μg/ml))	/ (/ indicates that there was no activity at the highest concentration of peptide used (512μg/ml))	–
FGYWSGGGHGGGHGIHGGGGGHHGWH [nAMP-LP-235, nematode AMP-like peptide selected for synthesis and MIC screening]	/ (/ indicates that there was no activity at the highest concentration of peptide used (512μg/ml))	/ (/ indicates that there was no activity at the highest concentration of peptide used (512μg/ml))	/ (/ indicates that there was no activity at the highest concentration of peptide used (512μg/ml))	/ (/ indicates that there was no activity at the highest concentration of peptide used (512μg/ml))	/ (/ indicates that there was no activity at the highest concentration of peptide used (512μg/ml))	/ (/ indicates that there was no activity at the highest concentration of peptide used (512μg/ml))	–
GAGRWRANRRANRRRFARRLRRNQRRAAQKRRAHARRHQRNLRRAARKIRRIQRR[nh2] (GAGRWRANRRANRRRFARRLRRNQRRAAQKRRAHARRHQRNLRRAARKIRRIQRR-NH2) [nAMP-LP-298, arginine-rich nematode AMP-like peptide conserved across four Clade 9/V gastrointestinal parasites]	64 µg/mL	64 µg/mL	32 µg/mL	64 µg/mL	32 µg/mL	64 µg/mL	MIC (P. aeruginosa PA01; cation-adjusted MHB): 9 µM; MIC E. faecalis JH2-2 (+), μM in brackets (E. faecalis JH2-2; microbroth dilution, cation-adjusted MHB, 5x10^5 CFU/ml, 37°C, 18–24 h, visible growth): 9 µM; MIC (E. coli K12; cation-adjusted MHB): 9 µM; MIC S. aureus RN4220 (+), μM in brackets (S. aureus RN4220; [2]): 5 µM; MIC S. aureus EMRSA-15 (+), μM in brackets (S. aureus EMRSA-15; Methicillin-resistant, microbroth dilution, cation-adjusted MHB, 5x10^5 CFU/ml, 37°C, 18–24 h, visible growth): 9 µM; MIC (A. baumannii DSM 30007; cation-adjusted MHB): 5 µM
GKKDEGKEVVDDKAGDKKGMKKSFRRQQGWIWIYW [nAMP-LP-1231, nematode AMP-like peptide selected for synthesis and MIC screening]	/ (/ indicates that there was no activity at the highest concentration of peptide used (512μg/ml))	/ (/ indicates that there was no activity at the highest concentration of peptide used (512μg/ml))	/ (/ indicates that there was no activity at the highest concentration of peptide used (512μg/ml))	/ (/ indicates that there was no activity at the highest concentration of peptide used (512μg/ml))	/ (/ indicates that there was no activity at the highest concentration of peptide used (512μg/ml))	/ (/ indicates that there was no activity at the highest concentration of peptide used (512μg/ml))	–
QWWGGRGGGRWRGGWRGGWRGRGRGWW [nAMP-LP-104]	–	–	–	–	256 µg/mL	–	MIC E. faecalis JH2-2 (+) (E. faecalis JH2-2; JH2-2): 256 µg/mL; MIC S. aureus EMRSA-15 (+) (S. aureus EMRSA-15; EMRSA-15): 256 µg/mL
